Results: PubChem BioAssay AID2060895 (Molecular Pharmacology Branch, DTP, NCI, 2025)

Tested on: PDC 899932-113-R3-J6 complex spheroid viability
Assay: Anticancer human tumor 899932-113-R3-J6-PDC patient-derived melanoma cell line growth inhibition [RAS]
Settings: for IC50: curve of first compound; for viability, T/C: stronger effect = lower value
Source text: RAS pathway inhibitors in Combinations in Complex Spheroids
A high-throughput screen of multi-cell type tumor spheroids was designed to identify active combinations of RAS pathway inhibitors and targeted small molecules. Complex spheroids include a stromal component modeled by human endothelial cells (HUVEC) and fibroblasts modeled by human mesenchymal stem cells (MSCs). The concentration ranges selected for each drug and investigational agent were based upon clinically achievable concentrations if the clinical Cmax of the agent was known.
Compounds. The drugs and investigational agents: abemaciclib (NSC768073), cobimetinib (NSC768068), divarasib (GDC6063, NSC841802), docetaxel (NSC628503), GDC-1971 (RLY-1971, NSC841576), gemcitabine (NSC613327), inavolisib (NSC800729), ipatasertib (NSC767898), KB-0742 (NSC834161), MRTX-1133 (NSC836407), osimertinib (NSC779217), RMC-4630 (NSC839698), RMC-6236 (NSC851965), RMC-6291 (NSC852671), Ro-3306 (NSC812927), sapanisertib (NSC764658), SN-38 (NSC673596), staurosporine (NSC755774), SY5609 (NSC837396), and tovorafenib (DAY101, NSC766906), were obtained from the National Cancer Institute (NCI) Developmental Therapeutics Program Chemical Repository. The FDA-approved anticancer drug set is available from the NCI Developmental Therapeutics Program. […] The stock solutions were prepared in dimethyl sulfoxide (DMSO, Sigma-Aldrich, St. Louis, MO, cat. D2650) at 800-fold the tested concentration and stored at -70 degrees C prior to their use. All drugs and investigational agents were tested over a range starting from a high concentration at or near the clinical Cmax and decreasing in half-log increments. If the clinical Cmax for an agent had not been determined, the highest concentration tested was 10 microM.
Cell Culture. All cells were maintained in an incubator at 37 degrees C and 5% CO2 with 95% humidity. The PDC lines were cultured according to standard operating procedures established by the NCI PDMR. All PDCs were thawed and cultured in Matrigel-coated flasks prepared with a working solution of 1X Ham's F-12 nutrient mix, without supplementation (Invitrogen, Waltham, MA, cat. 11765054), 100 U/mL penicillin-streptomycin (Invitrogen, cat. 15140122), and 2.5% Matrigel (Corning Inc., Corning, NY, cat. 354248) for the first three passages. The 362531-283-R-J2-PDC and 782815-120-R-J1-PDC lines were cultured in 6C/Colon 1B media, which includes advanced DMEM/F-12 (Thermo Fisher Scientific, cat. 12634028), 10 mM HEPES (Thermo Fisher Scientific, cat. 15630080), 1X GlutaMAX supplement (Thermo Fisher Scientific, cat. 35050061), 0.1 mg/mL primocin (InvivoGen, San Diego, CA, cat. ant-pm-2), 10% defined fetal bovine serum, heat inactivated (HyClone Laboratories Inc., Logan, UT, cat. SH30070.03HI), 50% L-WRN conditioned media (ATCC, cat. CRL-3276), 1.25 mM N-Acetyl-L-cysteine (Sigma-Aldrich, cat. A9165), 10 mM nicotinamide (Sigma-Aldrich, cat. N0636), 1X B-27 supplement (Thermo Fisher Scientific, cat. 17504044), 1X N-2 supplement (Thermo Fisher Scientific, cat. 17502048), 50 ng/mL human EGF (Thermo Fisher Scientific, cat. PHG0311), and 10 microM Y-27632 dihydrochloride (Tocris Bioscience, cat. 1254). The K12877-001-R-J1-PDC line was cultured in 6I media, which includes all 6C/Colon 1B media plus 10 ng/mL human FGF-10 (PeproTech, cat. 100-26), 1 ng/mL human FGF-2 (PeproTech, cat. 100-18B), 1 µM prostaglandin E2 (Tocris Bioscience, cat. 2296), […] hydrocortisone (Sigma-Aldrich, cat. H4001), and […] bovine insulin (Sigma-Aldrich, cat. I6634). The K86415-001-R-J1-PDC line was cultured in 6D media, which includes all 6C/Colon 1B media components minus the L-WRN conditioned media. The 485176-168-R4-J1-PDC was cultured in PANC media, which includes all 6C/Colon 1B media plus 100 ng/mL human FGF-10 (PeproTech, cat. 100-26), 500 nM SB-431542 (Selleckchem, cat. S1067), and 10 nM gastrin (Tocris Bioscience, cat. 3006). […]

[1] = second compound 0.0316 µM, first compound 0.0316 µM
[2] = second compound 0.0316 µM, first compound 0.1 µM
[3] = second compound 0.1 µM, first compound 0.0316 µM
[4] = second compound 0.1 µM, first compound 0.1 µM
[5] = second compound 0.316 µM, first compound 0.0316 µM
[6] = second compound 0.316 µM, first compound 0.1 µM
[7] = second compound 1 µM, first compound 0.0316 µM
[8] = second compound 1 µM, first compound 0.1 µM
[9] = second compound 3.16 µM, first compound 0.0316 µM
[10] = second compound 3.16 µM, first compound 0.1 µM
[11] = second compound 10 µM, first compound 0.0316 µM
[12] = second compound 10 µM, first compound 0.1 µM
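For viability, T/C in this document: spheroids exposed to agents for seven days before readout; 100% = DMSO vehicle control wells.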

Compound: CC(C)NCC(C(=O)N1CCN(c2ncnc3c2C(C)CC3O)CC1)c1ccc(Cl)cc1 (centres undefined) + C#Cc1c(F)ccc2cc(O)cc(-c3ncc4c(N5CC6CCC(C5)N6)nc(OCC56CCCN5CC(F)C6)nc4c3F)c12
- IC50 (second compound 0.0316 µM): 5.47 µM
- IC50 (second compound 0.1 µM): 5.82 µM
- IC50 (second compound 0.316 µM): 7.53 µM
- IC50 (second compound 1 µM): 7.94 µM
- IC50 (second compound 3.16 µM): 8.55 µM
- IC50 (second compound 10 µM): 6.45 µM
- viability, T/C [1]: 99.5%
- viability, T/C [2]: 113%
- viability, T/C (second compound 0.0316 µM, first compound 0.316 µM): 103%
- viability, T/C (second compound 0.0316 µM, first compound 1 µM): 76.9%
- viability, T/C (second compound 0.0316 µM, first compound 3.16 µM): 67.4%
- viability, T/C (second compound 0.0316 µM, first compound 10 µM): 34.8%
- viability, T/C [3]: 108%
- viability, T/C [4]: 109%
- viability, T/C (second compound 0.1 µM, first compound 0.316 µM): 97.3%
- viability, T/C (second compound 0.1 µM, first compound 1 µM): 86%
- viability, T/C (second compound 0.1 µM, first compound 3.16 µM): 68.9%
- viability, T/C (second compound 0.1 µM, first compound 10 µM): 34.4%
- viability, T/C [5]: 105%
- viability, T/C [6]: 115%
- viability, T/C (second compound 0.316 µM, first compound 0.316 µM): 93.7%
- viability, T/C (second compound 0.316 µM, first compound 1 µM): 99.6%
- viability, T/C (second compound 0.316 µM, first compound 3.16 µM): 72%
- viability, T/C (second compound 0.316 µM, first compound 10 µM): 42.5%
- viability, T/C [7]: 110%
- viability, T/C [8]: 105%
- viability, T/C (second compound 1 µM, first compound 0.316 µM): 107%
- viability, T/C (second compound 1 µM, first compound 1 µM): 94.8%
- viability, T/C (second compound 1 µM, first compound 3.16 µM): 83.1%
- viability, T/C (second compound 1 µM, first compound 10 µM): 41.5%
- viability, T/C [9]: 110%
- viability, T/C [10]: 120%
- viability, T/C (second compound 3.16 µM, first compound 0.316 µM): 97.6%
- viability, T/C (second compound 3.16 µM, first compound 1 µM): 101%
- viability, T/C (second compound 3.16 µM, first compound 3.16 µM): 80.7%
- viability, T/C (second compound 3.16 µM, first compound 10 µM): 44.8%
- viability, T/C [11]: 125%
- viability, T/C [12]: 112%
- viability, T/C (second compound 10 µM, first compound 0.316 µM): 101%
- viability, T/C (second compound 10 µM, first compound 1 µM): 88.5%
- viability, T/C (second compound 10 µM, first compound 3.16 µM): 79.6%
- viability, T/C (second compound 10 µM, first compound 10 µM): 33.7%

Compound: CC(C)n1nc(-c2ccc3oc(N)nc3c2)c2c(N)ncnc21 + C#Cc1c(F)ccc2cc(O)cc(-c3ncc4c(N5CC6CCC(C5)N6)nc(OCC56CCCN5CC(F)C6)nc4c3F)c12
- IC50 (second compound 0.0316 µM): 0.0903 µM
- IC50 (second compound 0.1 µM): > 0.1 µM
- IC50 (second compound 0.316 µM): > 0.1 µM
- IC50 (second compound 1 µM): > 0.1 µM
- IC50 (second compound 3.16 µM): > 0.1 µM
- IC50 (second compound 10 µM): > 0.1 µM
- viability, T/C (second compound 0.0316 µM, first compound 0.000316 µM): 104%
- viability, T/C (second compound 0.0316 µM, first compound 0.001 µM): 100%
- viability, T/C (second compound 0.0316 µM, first compound 0.00316 µM): 105%
- viability, T/C (second compound 0.0316 µM, first compound 0.01 µM): 91.8%
- viability, T/C [1]: 68.2%
- viability, T/C [2]: 48.1%
- viability, T/C (second compound 0.1 µM, first compound 0.000316 µM): 114%
- viability, T/C (second compound 0.1 µM, first compound 0.001 µM): 105%
- viability, T/C (second compound 0.1 µM, first compound 0.00316 µM): 95.7%
- viability, T/C (second compound 0.1 µM, first compound 0.01 µM): 100%
- viability, T/C [3]: 73.4%
- viability, T/C [4]: 52.5%
- viability, T/C (second compound 0.316 µM, first compound 0.000316 µM): 103%
- viability, T/C (second compound 0.316 µM, first compound 0.001 µM): 97.6%
- viability, T/C (second compound 0.316 µM, first compound 0.00316 µM): 115%
- viability, T/C (second compound 0.316 µM, first compound 0.01 µM): 100%
- viability, T/C [5]: 76.4%
- viability, T/C [6]: 50%
- viability, T/C (second compound 1 µM, first compound 0.000316 µM): 104%
- viability, T/C (second compound 1 µM, first compound 0.001 µM): 104%
- viability, T/C (second compound 1 µM, first compound 0.00316 µM): 110%
- viability, T/C (second compound 1 µM, first compound 0.01 µM): 96.5%
- viability, T/C [7]: 75%
- viability, T/C [8]: 52.4%
- viability, T/C (second compound 3.16 µM, first compound 0.000316 µM): 116%
- viability, T/C (second compound 3.16 µM, first compound 0.001 µM): 128%
- viability, T/C (second compound 3.16 µM, first compound 0.00316 µM): 118%
- viability, T/C (second compound 3.16 µM, first compound 0.01 µM): 112%
- viability, T/C [9]: 85.9%
- viability, T/C [10]: 51.6%
- viability, T/C (second compound 10 µM, first compound 0.000316 µM): 115%
- viability, T/C (second compound 10 µM, first compound 0.001 µM): 110%
- viability, T/C (second compound 10 µM, first compound 0.00316 µM): 123%
- viability, T/C (second compound 10 µM, first compound 0.01 µM): 115%
- viability, T/C [11]: 85.8%
- viability, T/C [12]: 50.7%
